Calls of active or inactive are those of the source.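 Rule for the calls: active = compounds giving half or more protection of infected cells from virus-caused growth loss, again on retest; inactive = the rest.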 Where a SMILES comes first, the peptide text is derived from it. Bridges are numbered along the chain shown (N, C = ends).
Tested on: CEM cells HIV-1 protection, formazan growth assay
Assay: NCI AIDS Antiviral Assay
Conditions: for IC50: measured here: growth of uninfected CEM cells
Summary of the method: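 Human CEM cells, uninfected and HIV-1-infected, exposed to five drug concentrations; growth measured by soluble formazan assay and scored as percent protection from infection, with protecting compounds retested.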

Row | SMILES | outcome | EC50 [µM] | IC50 [µM]
1 | COc1ccc(-c2oc3cc(OC(C)=O)cc(OC(C)=O)c3c(=O)c2OC)cc1 | inactive | – | –
2 | CCN(CC)C(=O)C1=C(C)NC(C)=C(C(=O)N(CC)CC)C1 | – | > 200 | 61.7
3 | COC1OC2COC(c3ccccc3)OC2C2N=C(N)N([N+](=O)[O-])C12OS(C)(=O)=O (centres undefined) | inactive | – | –
4 | CC(=O)CCS(=O)(=O)O | – | > 200 | > 200
5 | O=c1[nH]nc(Cc2ccccc2)n1C1CCCC1 | – | > 200 | > 200
6 | O=C(O)CNS(=O)(=O)c1ccc(NC(=O)c2ccc(Cl)cc2)cc1 | inactive | – | –
7 | O=c1[nH]c2ccc(CC(=S)N3CCCCC3)cc2s1 | – | > 200 | 148
8 | CCCCCCNC(=O)CCN(C(=O)O)S(=O)(=O)c1ccc(NC(=O)c2ccccc2)cc1 | – | > 380 | > 380
9 | CCC(C)CCOC(=O)c1ccc(N=Cc2ccc(C=Nc3ccc(C(=O)OCCC(C)CC)cc3)cc2)cc1 (centres undefined) | – | > 6.61 | > 6.61
10 | N#CC1=C(O)NC(O)=C(C#N)C1c1ccc(C2C(C#N)=C(O)NC(O)=C2C#N)cc1 | – | > 631 | 35.5
11 | COc1ccc(C=O)c(NC(=O)C(C)C)c1 | inactive | – | –
12 | COC(=O)[C@H]1CO[C@@H](C(C)(C)C)N1C(=O)N1C=CC(=O)C[C@@H]1C | – | > 200 | > 200
13 | CS(=O)(=O)Nc1ccc2c(c1)N(S(C)(=O)=O)CC2COS(C)(=O)=O (centres undefined) | – | > 200 | 40.7
14 | [O-]/[N+]1=[N+](\[O-])c2ccccc2COCc2ccccc21 | inactive | – | –
15 | O=C1c2cccc3cc([N+](=O)[O-])cc(c23)C(=O)N1c1ccc(OCCN2CCCC2)cc1 | – | > 200 | 5.62
16 | C/C1=C/C2OC(=O)C3(C)C2C(CC2(C)OC1=CC2=O)OC3(O)C(C)C (centres undefined) | – | > 102 | 10.5
17 | CC(=O)Oc1cc(OC(C)=O)c2c(c1C)CC[C@@H]1[C@@H]2CC[C@]2(C)[C@@H](OC(C)=O)CC[C@@H]12 | – | > 200 | 18.2
18 | Nc1cccc2c1-c1c(cccc1[N+](=O)[O-])C2=O | inactive | – | –
19 | COC[C@@H](N=CC(C)(C)C)C(C)C | – | > 200 | > 200
20 | Cc1cc2ccccc2oc(=O)/c1=N\Nc1ccccc1 | – | > 200 | 34.7
21 | O=c1cn[nH]c2nc3ccccc3n12 | – | > 200 | > 200
22 | NC(N)=N/N=C\c1ccc(C2CCNCC2)cc1 | – | > 200 | > 200
23 | CCC(=O)CCCC=C(c1cc(Cl)c(OC)c(C=O)c1)c1cc(Cl)c(OC)c(C=O)c1 | – | > 200 | 1.12

Row | SMILES | outcome | EC50 [µM] | IC50 [µM]
24 | [Co+2].[O-]c1ccccc1C=NCc1ccccc1.[O-]c1ccccc1C=NCc1ccccc1 | – | > 19.5 | > 19.5
25 | COC(=O)C(/C(=N/NC(=O)c1ccncc1)C(=O)Nc1ccccc1OC)c1nc2ccc(Cl)cc2[nH]c1=O (centres undefined) | – | > 91.2 | > 91.2
26 | CCCCCCCCCCCCCc1nn[nH]n1 | – | > 102 | > 100
27 | CC12C(C(=O)O)C(=O)C(C(=O)O)C1(C)C(C(=O)O)C(=O)C2C(=O)O (centres undefined) | – | > 525 | 398
28 | O=C(/C=C/c1ccccc1)/C=C/c1ccccc1O | – | > 145 | 61.7
29 | CCCN=C(N)NC#N | – | > 708 | > 708
30 | Oc1ccc(N=C2N=c3c(c4ccccc4c4ccccc34)=N2)c2ccccc12 | – | > 200 | 4.57
31 | CC1=C(c2nc3ccccc3s2)C(=O)OC1(C)C | – | > 182 | 123
32 | CCN(CC)CCN(C(=O)c1ccc(F)cc1)c1ccccc1N | – | > 200 | > 200
33 | CC(c1ccccc1)n1cncc1C(=O)NN1CCN(C)CC1 (centres undefined) | – | > 200 | > 200
34 | CN(C)C1CS(=O)(=O)OC2=C1CCc1sccc12 (centres undefined) | – | > 25.1 | > 25.1
35 | CCN(CC)CCOc1cccc(NC(=O)CN(CC)CC)c1 | – | > 200 | 81.3
36 | CCCSS/C(CCO)=C(\C)N(C=O)Cc1cnc(C)nc1N | – | > 200 | 10.5
37 | CN1C(CC(O)c2ccccc2)CCCC1CC(O)(c1ccccc1)c1ccccc1 (centres undefined) | – | > 107 | 22.9
38 | Cc1c2c(n(CCN(C)C)c1C)NN=C(C#N)S2(=O)=O | – | > 200 | > 200
39 | CSc1nc2c3ccccc3ccn2c1C(=O)N/N=C/c1ccccc1 | – | > 100 | > 100
40 | CC(=O)N1c2ccccc2[C@H]2CCc3c([nH]c4ccccc34)[C@H]21 | – | > 20 | 12.9
41 | CC1(CO)CCCC/C1=N\Nc1cc([N+](=O)[O-])cc([N+](=O)[O-])c1 (centres undefined) | – | > 501 | 19.1
42 | S=c1[nH]c2ccccc2[nH]c1=S | – | > 200 | 26.3
43 | COc1cccc(N2N=C3c4ccccc4-n4c(nc5ccccc54)C3C2N)c1 (centres undefined) | – | > 200 | > 200
44 | O=[N+]([O-])c1ccc2nc3ccscc-3c2c1 | – | > 15.5 | 2.88
45 | N#CC1(c2ccccc2)CCNCC1 | – | > 1120 | 562
46 | Cc1cc(S(=O)(=O)Nc2nnc3c4ccccc4cnn23)c(S)cc1Cl | – | 56.2 | 1170

Row | SMILES | outcome | EC50 [µM] | IC50 [µM]
47 | COc1cc2c(cc1OC)C1CC(=O)C3=C(CCCC3)N1CC2 (centres undefined) | – | > 200 | 91.2
48 | S=C(NC1=NCC(CN2CCN(c3ccccc3)CC2)O1)Nc1ccccc1 (centres undefined) | – | > 200 | 45.7
49 | CSC(=Nc1cc2ccccc2c2ccccc12)NC#N | – | > 34.7 | 26.9
50 | CCOP(=O)(OCC)/C(=C/n1c(=S)[nH]c2ccc([N+](=O)[O-])cc21)C(=O)OC | – | > 200 | 115
51 | O=C1/C(=N\O)C2CCC1C2 (centres undefined) | – | > 363 | > 363
52 | Nc1ccc2c(c1)S(=O)(=O)c1cc(N)ccc1-2 | – | > 200 | > 200
53 | CC(=O)OCC1OC(n2c(-c3ccccc3)cc(-c3ccccc3)c(C#N)c2=O)C(OC(C)=O)C(OC(C)=O)C1OC(C)=O (centres undefined) | – | > 16.6 | > 16.6
54 | CC1(C)CC(=O)C(Cc2ccccc2)(Cc2ccccc2)C(=O)C1 | inactive | – | –
55 | CC(=[OH+])[CH-]C(C)=NCC(C)N=C(C)CC(C)=[OH+].[Cu+2] (centres undefined) | – | > 200 | 20.9
56 | O=C(O)/C(=C/c1ccccc1[N+](=O)[O-])c1cccs1 | – | > 912 | 457
57 | CCN(CC)c1ccc(/C=C/c2n(-c3ccccc3)c3ccccc3[n+]2C)cc1 | – | > 2 | 0.115
58 | COC(=O)C1C2OC(C)(C)OC2CN1S(=O)(=O)c1ccc(C)cc1 (centres undefined) | inactive | – | –
59 | C=C1CN(S(=O)(=O)c2ccc(C)cc2)CCN(C(=O)OC(C)(C)C)CCN(S(=O)(=O)c2ccc(C)cc2)C1 | – | > 200 | 20
60 | N#CC(C#N)=C1SCC(=O)CS1 | inactive | – | –
61 | COC(=O)C1ON2C(C1C(=O)OC)C(C)(C)N(O)C2(C)C (centres undefined) | – | > 200 | > 200
62 | O=C(Nc1ccc(F)cc1)Nc1ccc(Nc2ccccc2)cc1 | – | > 200 | > 200
63 | CN(C)CCCNc1nnc(NCCCN(C)C)c2c(=O)c3sccc3[nH]c12 | – | > 20 | 2.69
64 | CC1=NN(C(=O)CC(=O)NC(=O)/C=C\c2ccccc2)C(=O)C1N=Nc1ccc([N+](=O)[O-])cc1 (centres undefined) | inactive | – | –
65 | CCCCCCCCCCCc1c(O)c(O)cc2nc3cc(Cl)c(Cl)cc3nc12 | – | > 16.6 | 5.37
66 | O=C1COC(c2ccccc2O)=NN1CCN1CCOCC1 | – | > 105 | > 105
67 | N#CC(C#N)=Cc1ccc2c(c1)OC(Cl)O2 (centres undefined) | inactive | – | –
68 | COC(=O)CCC1=CCC2(SC)C(=O)Nc3cccc1c32 (centres undefined) | – | > 200 | > 200
69 | Cc1c2ccn(O)cc2c(C)c2c1nc1ccccc12 | – | > 200 | 1.82

Row | SMILES | outcome | EC50 [µM] | IC50 [µM]
70 | O=C(O)C(F)(OC(F)(F)C(F)(OC(F)(F)C(F)(F)C(F)(F)F)C(F)(F)F)C(F)(F)F (centres undefined) | – | > 200 | > 200
71 | Cc1ccc(C2=Nn3c(nc4sc(C)c(C)c4c3=O)SC2)cc1 | – | > 200 | > 200
72 | OC1=C2CCCCCC2=[N+]2CCCCC2C1 (centres undefined) | – | > 200 | > 200
73 | O=C(Cn1cc(-c2ccccc2)nn1)NC1CCCC1 | – | > 200 | > 200
74 | CCCc1cc(=O)oc2c3c(cc(OC(C)CC)c12)O[C@H](C)[C@@H](C)[C@@H]3O (some centres undefined) | – | 3.63 | 37.2
75 | CC(C)OP(=O)(OC(C)C)C(=Nc1ccccc1)NNc1ccc([N+](=O)[O-])cc1 | – | > 32.4 | 21.9
76 | Cc1nnc(Cc2ccccc2)c2n[nH]c(C)c12 | – | > 398 | 110
77 | CCCC(=O)NC1Cc2cc(C)cc(C)c21 (centres undefined) | – | > 45.7 | > 45.7
78 | CC(=O)/C(=C/n1ccc(=O)[nH]c1=S)C(=O)Nc1ccccc1 | – | > 200 | > 200
79 | Cc1ccc2[nH]c(=O)c(-c3cnc(=O)[nH]n3)c(O)c2c1 | – | 3.02 | 15.1
80 | Cc1cccc(C2=NC(=C3CCCCC3)C(=O)O2)c1 | – | > 200 | 38
81 | CC(C)(/C=N/O)/[N+]([O-])=C/c1ccccc1 | – | > 200 | > 200
82 | C[C@H](OCc1ccccc1)C(=O)N1CCS(=O)(=O)N2CCC[C@@H]2C1=O | – | > 490 | > 490
83 | CC1NCCc2c1[nH]c1ccc(O)cc21 (centres undefined) | inactive | – | –
84 | Cc1ccc(NC(=O)NC(=O)c2ccc([N+](=O)[O-])cc2[N+](=O)[O-])cc1Oc1ncc(Cl)cn1 | inactive | – | –
85 | Cc1c(C(=O)O)n2c(=S)[nH]nc2c2ccccc12 | – | > 200 | > 200
86 | CCOC(=O)C1CSSCC(N)C(=O)N1 (stereo not drawn) (H-Cys-Cys-OEt; disulfide 1-2; configuration not given here) | – | > 200 | > 200
87 | O=C1NS(=O)(=O)NC1(c1ccccc1)c1ccccc1 | inactive | – | –
88 | OCC1CC(F)C(n2cnc3c(I)ncnc32)O1 (centres undefined) | – | > 138 | 63.1
89 | CC1(C)C2CC(O)C1CCC2=O (centres undefined) | – | > 200 | > 200
90 | CC(=O)/C(=C/N1C(=O)CC(=O)NC1=S)C(=O)Nc1ccccc1 | – | > 200 | > 200
91 | CS(=O)(=O)c1nc(NCCc2ccccc2)c2cnn(C3CCCCO3)c2n1 (centres undefined) | inactive | – | –
92 | CC(C)(CN1CCCCC1)C(=O)CC(SCCS(=O)(=O)O)c1ccc(Br)cc1 (centres undefined) | – | > 427 | 1.74

Source: PubChem BioAssay AID179 (DTP/NCI, 2004)
